Test results as given in patent publication US12673933B2, “Aminopyrazine compounds as HPK1 inhibitor and the use thereof” (BEIGENE, LTD., priority 2019, dated 2026).

What follows are molecules tested against T1, HPK1 kinase (aa1-346, Life Technologies) (Homo sapiens, UniProt Q92918) (assay: HPK Kinase Activity Assay at 1 mM ATP (TR-FRET)). Conditions: HPK1 kinase 40 nM, 0.5 μM STK1 substrate, read-out: Enzymatic activity IC50.
T1 construct: HPK1 kinase (aa1-346, Life Technologies); purchased Life Technologies
T1 sequence (Q92918 1-346): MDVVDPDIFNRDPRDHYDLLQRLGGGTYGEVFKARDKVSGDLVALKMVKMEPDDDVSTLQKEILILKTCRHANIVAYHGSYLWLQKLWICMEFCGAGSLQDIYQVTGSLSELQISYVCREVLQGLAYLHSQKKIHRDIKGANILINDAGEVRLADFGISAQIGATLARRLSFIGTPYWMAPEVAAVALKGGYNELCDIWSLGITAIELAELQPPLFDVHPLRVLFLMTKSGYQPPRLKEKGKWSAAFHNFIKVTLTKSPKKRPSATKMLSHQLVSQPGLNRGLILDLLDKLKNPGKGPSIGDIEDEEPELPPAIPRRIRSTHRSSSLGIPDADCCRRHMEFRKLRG
Format: biochemical
Protocol: HPK Kinase Activity Assay at 1 mM ATP
Compounds disclosed herein were tested for inhibition of HPK1 kinase (aa1-346, Life Technologies) activity in assays based on the time-resolved fluorescence-resonance energy transfer (TR-FRET) methodology. The assays were carried out in 384-well low volume black plates in a reaction mixture containing HPK1 kinase (40 nM), 1 mM ATP, 0.5 μM STK1 substrate and 0-10 μM compound in buffer containing 50 mM HEPES, 0.01% BSA, 0.1 mM Orthovanadate, 10 mM MgCl2, 1 mM DTT, pH=7.0, 0.005% Tween-20. The kinase was incubated with the compounds disclosed herein or DMSO for 60 minutes at room temperature and the reaction was initiated by the addition of ATP and STK1 substrate. After reaction at room temperature for 120 minutes, an equal volume of stop/detection solution was added according to the manufacture's instruction (CisBio). The stop/detection solution contained STK Antibody-Cryptate and XL665-conjugated streptavidin in Detection Buffer. The TR-FRET signals (ratio of fluorescence emission at 665 nm over emission at 620 nm with excitation at 337 nm wavelength) were recorded on a PHERAstar FS plate reader (BMG Labtech). Phosphorylation of STK1 substrate led to the binding of STK Antibody-Cryptate to the biotinylated STK1 substrate, which places fluorescent donor (Eu^3+ crypate) in close proximity to the accepter (Streptavidin-XL665), thus resulting in a high degree of fluorescence resonance energy transfer. The inhibition of HPK1 in presence of increasing concentrations of compounds was calculated based on the ratio of fluorescence at 665 nm to that at 620 nm. The IC50 for each compound was derived from fitting the data to the four-parameter logistic equation by Graphpad Prism software.

SMILES	IC50 [µM]
Cc1cc(-c2cnc(N)c(Oc3cnn(C(C)C)c3)n2)cc2c1CCN(C)C2 [Example 272, 5-(2,5-dimethyl-1,2,3,4-tetrahydroisoquinolin-7-yl)-3-(1-isopropyl-1H-pyrazol-4-yloxy)pyrazin-2-amine]	0.0084
CCn1cc(Oc2nc(-c3cc4c(c(OC)c3)CCN(C)C4)cnc2N)cn1 [Example 274, 3-(1-ethyl-1H-pyrazol-4-yloxy)-5-(5-methoxy-2-methyl-1,2,3,4-tetrahydroisoquinolin-7-yl)pyrazin-2-amine]	0.024
COCCn1cc(Oc2nc(-c3cc(C)c4c(c3)CN(C)CC4)cnc2N)cn1 [Example 276, 5-(2,5-dimethyl-1,2,3,4-tetrahydroisoquinolin-7-yl)-3-((1-(2-methoxyethyl)-1H-pyrazol-4-yl)oxy)pyrazin-2-amine]	0.024
CCOCCn1cc(Oc2nc(-c3cc(C)c4c(c3)CN(C)CC4)cnc2N)cn1 [Example 278, 5-(2,5-dimethyl-1,2,3,4-tetrahydroisoquinolin-7-yl)-3-((1-(2-ethoxyethyl)-1H-pyrazol-4-yl)oxy)pyrazin-2-amine]	0.015
Cc1cc(-c2cnc(N)c(-n3cc(C(=O)N4CCC(F)(F)C4)cn3)n2)cc2c1CCN(C)C2 [Example 281, (1-(3-amino-6-(2,5-dimethyl-1,2,3,4-tetrahydroisoquinolin-7-yl)pyrazin-2-yl)-1H pyrazol-4-yl)(3,3-difluoropyrrolidin-1-yl)methanone]	0.056
COCCN(C)C(=O)c1cnn(-c2nc(-c3cc(C)c4c(c3)CN(C)CC4)cnc2N)c1 [Example 283, 1-(3-amino-6-(2,5-dimethyl-1,2,3,4-tetrahydroisoquinolin-7-yl)pyrazin-2-yl)-N-(2-methoxyethyl)-N-methyl-1H-pyrazole-4-carboxamide]	0.0063
Cc1cc(-c2cnc(N)c(-n3cc(C(=O)N4CCN(C)CC4)cn3)n2)cc2c1CCN(C)C2 [Example 284, (1-(3-amino-6-(2,5-dimethyl-1,2,3,4-tetrahydroisoquinolin-7-yl)pyrazin-2-yl)-1H-pyrazol-4-yl)(4-methylpiperazin-1-yl)methanone]	0.038
Cc1cc(-c2cnc(N)c(-n3cc(C(=O)NCCN4CCCC4)cn3)n2)cc2c1CCN(C)C2 [Example 285, 1-(3-amino-6-(2,5-dimethyl-1,2,3,4-tetrahydroisoquinolin-7-yl)pyrazin-2-yl)-N-(2-(pyrrolidin-1-yl)ethyl)-1H-pyrazole-4-carboxamide]	0.014
Cc1cc(-c2cnc(N)c(-n3cc(C(=O)N(C)c4ccccc4Cl)cn3)n2)cc2c1CCN(C)C2 [Example 286, 1-(3-amino-6-(2,5-dimethyl-1,2,3,4-tetrahydroisoquinolin-7-yl)pyrazin-2-yl)-N-(2-chlorophenyl)-N-methyl-1H-pyrazole-4-carboxamide]	0.0036
Cc1cc(-c2cnc(N)c(C(=O)Nc3ccncc3)n2)cc2c1CCN(C)C2 [Example 287, 3-amino-6-(2,5-dimethyl-1,2,3,4-tetrahydroisoquinolin-7-yl)-N-(pyridin-4-yl)pyrazine-2-carboxamide]	0.025
Cc1cc(-c2cnc(N)c(Oc3cnn(C(C)c4cccnc4)c3)n2)cc2c1CCN(C)C2 (centres unmarked) [Example 288, 5-(2,5-dimethyl-1,2,3,4-tetrahydroisoquinolin-7-yl)-3-(1-(1-(pyridin-3-yl)ethyl)-1H-pyrazol-4-yloxy)pyrazin-2-amine]	0.017
CN1CCc2c(cc(-c3cnc(N)c(-n4cc(C(=O)N(C)C)cn4)n3)cc2NC2CC2)C1 [Example 290, 1-(3-amino-6-(5-(cyclopropylamino)-2-methyl-1,2,3,4-tetrahydroisoquinolin-7-yl)pyrazin-2-yl)-N,N-dimethyl-1H-pyrazole-4-carboxamide]	0.016
CCS(=O)(=O)N1CC(n2cc(Oc3nc(-c4cc(C)c5c(c4)CN(C)CC5)cnc3N)cn2)C1 [Example 295, 5-(2,5-dimethyl-1,2,3,4-tetrahydroisoquinolin-7-yl)-3-(1-(1-(ethylsulfonyl)azetidin-3-yl)-1H-pyrazol-4-yloxy)pyrazin-2-amine]	0.036
Cc1cc(-c2cnc(N)c(-n3cc(C(=O)NC4CC4)cn3)n2)cc2c1CCN(C)C2 [Example 298, 1-(3-amino-6-(2,5-dimethyl-1,2,3,4-tetrahydroisoquinolin-7-yl)pyrazin-2-yl)-N-cyclopropyl-1H-pyrazole-4-carboxamide]	0.0042
Cc1cc(-c2cnc(N)c(-n3cc(C(=O)NCCN4CCOCC4)cn3)n2)cc2c1CCN(C)C2 [Example 299, 1-(3-amino-6-(2,5-dimethyl-1,2,3,4-tetrahydroisoquinolin-7-yl)pyrazin-2-yl)-N-(2-morpholinoethyl)-1H-pyrazole-4-carboxamide]	0.0089

Further molecules by falling IC50, results first:

IC50 [µM]	SMILES
0.067	Cc1cc(-c2cnc(N)c(Oc3cnn(C4CN(S(=O)(=O)c5ccccc5)C4)c3)n2)cc2c1CCN(C)C2 [Example 296, 5-(2,5-dimethyl-1,2,3,4-tetrahydroisoquinolin-7-yl)-3-(1-(1-(phenylsulfonyl)azetidin-3-yl)-1H-pyrazol-4-yloxy)pyrazin-2-amine]
0.054	Cc1cc(-c2cnc(N)c(-n3cc(C(=O)N(C)CCN4CCCC4)cn3)n2)cc2c1CCN(C)C2 [Example 302, 1-(3-amino-6-(2,5-dimethyl-1,2,3,4-tetrahydroisoquinolin-7-yl)pyrazin-2-yl)-N-methyl-N-(2-(pyrrolidin-1-yl)ethyl)-1H-pyrazole-4-carboxamide]
0.037	Cc1cc(-c2cnc(N)c(Oc3cnn(CC4CCOCC4)c3)n2)cc2c1CCN(C)C2 [Example 293, 5-(2,5-dimethyl-1,2,3,4-tetrahydroisoquinolin-7-yl)-3-(1-((tetrahydro-2H-pyran-4-yl)methyl)-1H-pyrazol-4-yloxy)pyrazin-2-amine]
0.019	CNCCN(C)C(=O)c1cnn(-c2nc(-c3cc(C)c4c(c3)CN(C)CC4)cnc2N)c1 [Example 279, 1-(3-amino-6-(2,5-dimethyl-1,2,3,4-tetrahydroisoquinolin-7-yl)pyrazin-2-yl)-N-methyl-N-(2-(methylamino)ethyl)-1H-pyrazole-4-carboxamide]
0.014	CCn1cc(Oc2nc(-c3cc4c(c(NC)c3)CCN(C)C4)cnc2N)cn1 [Example 275, 7-(5-amino-6-(1-ethyl-1H-pyrazol-4-yloxy)pyrazin-2-yl)-N,2-dimethyl-1,2,3,4-tetrahydroisoquinolin-5-amine]
0.0097	CNc1cc(-c2cnc(N)c(-n3cc(C(=O)N(C)C)cn3)n2)cc2c1CCN(C)C2 [Example 289, 1-(3-amino-6-(2-methyl-5-(methylamino)-1,2,3,4-tetrahydroisoquinolin-7-yl)pyrazin-2-yl)-N,N-dimethyl-1H-pyrazole-4-carboxamide]
0.0075	Cc1cc(-c2cnc(N)c(-n3cc(C(=O)NCc4ccc(F)cc4Cl)cn3)n2)cc2c1CCN(C)C2 [Example 300, 1-(3-amino-6-(2,5-dimethyl-1,2,3,4-tetrahydroisoquinolin-7-yl)pyrazin-2-yl)-N-(2-chloro-4-fluorobenzyl)-1H-pyrazole-4-carboxamide]
0.0066	Cc1cc(-c2cnc(N)c(OCc3ccnc(N)c3O[C@H]3CCOC3)n2)cc2c1CCN(C)C2 [Example 282, (S)-3-((2-amino-3-((tetrahydrofuran-3-yl)oxy)pyridin-4-yl)methoxy)-5-(2,5-dimethyl-1,2,3,4-tetrahydroisoquinolin-7-yl)pyrazin-2-amine]
0.0066	Cc1cc(-c2cnc(N)c(-n3cc(C(=O)NCC4CC4)cn3)n2)cc2c1CCN(C)C2 [Example 297, 1-(3-amino-6-(2,5-dimethyl-1,2,3,4-tetrahydroisoquinolin-7-yl)pyrazin-2-yl)-N-(cyclopropylmethyl)-1H-pyrazole-4-carboxamide]
0.0065	Cc1cc(-c2cnc(N)c(Oc3cnn(CCC#N)c3)n2)cc2c1CCN(C)C2 [Example 277, 3-(4-((3-amino-6-(2,5-dimethyl-1,2,3,4-tetrahydroisoquinolin-7-yl)pyrazin-2-yl)oxy)-1H-pyrazol-1-yl)propanenitrile]
0.0053	CCOCCN(C)C(=O)c1cnn(-c2nc(-c3cc(C)c4c(c3)CN(C)CC4)cnc2N)c1 [Example 292, 1-(3-amino-6-(2,5-dimethyl-1,2,3,4-tetrahydroisoquinolin-7-yl)pyrazin-2-yl)-N-(2-ethoxyethyl)-N-methyl-1H-pyrazole-4-carboxamide]
